Assay results published in ChEMBL document CHEMBL1139933, “Synthesis of andrographolide derivatives: a new family of alpha-glucosidase inhibitors” (Bioorg Med Chem, 2007).
Active and inactive are the calls of the source. No cut-off for these calls is given here.

Key:
Maltase-glucoamylase [1] = target: T1, Maltase-glucoamylase (Homo sapiens, UniProt O43451); assay: Inhibition of alpha-glucosidase at 100 uM
Target sequence in this assay (O43451 whole entry, looked up): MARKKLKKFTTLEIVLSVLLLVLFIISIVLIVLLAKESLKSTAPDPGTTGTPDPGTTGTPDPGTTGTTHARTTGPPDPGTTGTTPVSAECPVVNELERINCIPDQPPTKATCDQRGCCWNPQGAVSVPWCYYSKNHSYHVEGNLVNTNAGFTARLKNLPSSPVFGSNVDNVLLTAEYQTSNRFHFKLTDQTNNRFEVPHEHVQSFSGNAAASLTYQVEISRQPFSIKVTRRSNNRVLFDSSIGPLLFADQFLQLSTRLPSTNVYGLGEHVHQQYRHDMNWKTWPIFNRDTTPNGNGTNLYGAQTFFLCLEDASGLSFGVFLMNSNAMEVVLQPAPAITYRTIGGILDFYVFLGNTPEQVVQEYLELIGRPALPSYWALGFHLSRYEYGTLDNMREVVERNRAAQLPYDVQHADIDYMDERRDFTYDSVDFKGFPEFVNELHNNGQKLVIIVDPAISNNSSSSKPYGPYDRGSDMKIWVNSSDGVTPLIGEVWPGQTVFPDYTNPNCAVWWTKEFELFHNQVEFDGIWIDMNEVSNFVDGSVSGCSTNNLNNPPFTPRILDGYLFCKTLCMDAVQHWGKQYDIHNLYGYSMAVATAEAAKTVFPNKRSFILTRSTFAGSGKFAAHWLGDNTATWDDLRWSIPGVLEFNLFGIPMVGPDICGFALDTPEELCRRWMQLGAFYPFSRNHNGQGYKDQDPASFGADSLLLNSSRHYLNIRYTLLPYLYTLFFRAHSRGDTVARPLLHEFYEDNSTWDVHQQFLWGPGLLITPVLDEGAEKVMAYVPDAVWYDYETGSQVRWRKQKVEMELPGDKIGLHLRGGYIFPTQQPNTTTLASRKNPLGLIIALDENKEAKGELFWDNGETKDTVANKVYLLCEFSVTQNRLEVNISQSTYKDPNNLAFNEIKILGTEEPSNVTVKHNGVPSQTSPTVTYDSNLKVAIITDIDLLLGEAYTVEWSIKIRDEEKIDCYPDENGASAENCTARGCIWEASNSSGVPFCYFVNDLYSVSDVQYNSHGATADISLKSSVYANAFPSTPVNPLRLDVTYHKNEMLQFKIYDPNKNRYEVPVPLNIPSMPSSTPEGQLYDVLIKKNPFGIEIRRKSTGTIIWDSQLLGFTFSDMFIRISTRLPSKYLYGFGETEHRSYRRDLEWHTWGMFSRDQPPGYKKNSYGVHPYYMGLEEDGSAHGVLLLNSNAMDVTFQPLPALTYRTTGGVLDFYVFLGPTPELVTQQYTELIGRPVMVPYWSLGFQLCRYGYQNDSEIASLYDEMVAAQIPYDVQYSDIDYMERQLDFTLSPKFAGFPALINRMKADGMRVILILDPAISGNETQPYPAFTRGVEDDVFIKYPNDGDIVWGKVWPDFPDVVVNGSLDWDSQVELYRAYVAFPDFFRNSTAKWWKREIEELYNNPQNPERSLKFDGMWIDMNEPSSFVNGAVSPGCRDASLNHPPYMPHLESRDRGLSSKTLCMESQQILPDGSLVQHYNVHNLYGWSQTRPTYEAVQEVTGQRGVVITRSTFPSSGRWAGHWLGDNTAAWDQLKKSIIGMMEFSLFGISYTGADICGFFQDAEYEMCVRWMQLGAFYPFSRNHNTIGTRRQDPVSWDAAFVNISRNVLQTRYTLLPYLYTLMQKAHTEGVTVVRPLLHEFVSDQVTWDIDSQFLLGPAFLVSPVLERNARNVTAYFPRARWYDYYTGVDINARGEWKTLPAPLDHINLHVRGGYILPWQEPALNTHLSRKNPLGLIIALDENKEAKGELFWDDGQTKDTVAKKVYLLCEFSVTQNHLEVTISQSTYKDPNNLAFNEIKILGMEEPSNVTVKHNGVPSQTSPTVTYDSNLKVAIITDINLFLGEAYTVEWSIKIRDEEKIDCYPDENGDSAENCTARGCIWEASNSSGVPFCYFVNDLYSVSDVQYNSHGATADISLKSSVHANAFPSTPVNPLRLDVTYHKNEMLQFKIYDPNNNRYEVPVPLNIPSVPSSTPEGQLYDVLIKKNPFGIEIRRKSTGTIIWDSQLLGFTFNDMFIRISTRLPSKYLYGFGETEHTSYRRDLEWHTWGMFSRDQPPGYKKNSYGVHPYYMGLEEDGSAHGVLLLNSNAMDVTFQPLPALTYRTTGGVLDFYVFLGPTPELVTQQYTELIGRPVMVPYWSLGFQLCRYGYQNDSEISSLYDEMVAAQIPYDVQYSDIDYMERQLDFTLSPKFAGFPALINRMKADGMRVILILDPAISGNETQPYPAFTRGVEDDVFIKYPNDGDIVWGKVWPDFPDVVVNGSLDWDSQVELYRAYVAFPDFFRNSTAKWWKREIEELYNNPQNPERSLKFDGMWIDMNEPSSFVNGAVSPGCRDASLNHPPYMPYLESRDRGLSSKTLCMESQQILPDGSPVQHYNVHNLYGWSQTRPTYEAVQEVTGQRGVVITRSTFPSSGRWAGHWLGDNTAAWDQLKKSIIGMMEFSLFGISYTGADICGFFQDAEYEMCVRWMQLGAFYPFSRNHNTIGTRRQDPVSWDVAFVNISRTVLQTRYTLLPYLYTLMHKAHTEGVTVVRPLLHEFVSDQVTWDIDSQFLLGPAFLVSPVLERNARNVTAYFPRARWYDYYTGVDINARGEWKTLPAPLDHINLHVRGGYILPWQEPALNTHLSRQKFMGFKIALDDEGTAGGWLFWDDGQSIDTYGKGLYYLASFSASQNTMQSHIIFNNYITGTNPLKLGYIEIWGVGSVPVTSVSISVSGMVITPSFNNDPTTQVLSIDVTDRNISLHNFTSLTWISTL

Maltase-glucoamylase [2] = target: T1, Maltase-glucoamylase; assay: Inhibition of alpha-glucosidase at 1 mM
Target sequence in this assay (O43451 whole entry, looked up): as above

Maltase-glucoamylase [3] = target: T1, Maltase-glucoamylase; assay: Inhibition of alpha-glucosidase
Target sequence in this assay (O43451 whole entry): as the sequence (O43451 whole entry, looked up) above

Row | SMILES | inhibition (Maltase-glucoamylase [1]) | further results
1 | C=C1CC[C@@H]2[C@](C)(COC(=O)c3cccnc3)[C@H](OC(=O)c3cccnc3)CC[C@@]2(C)[C@@H]1/C=C/C1=CC(=C\c2ccc(OC)cc2)/OC1=O | 100% | 
2 | C=C1CC[C@@H]2[C@](C)(COC(=O)c3cccnc3)[C@H](OC(=O)c3cccnc3)CC[C@@]2(C)[C@@H]1/C=C/C1=CC(=C\c2ccc(Cl)cc2)/OC1=O | 100% | 
3 | C=C1CC[C@@H]2[C@](C)(CO)[C@H](O)CC[C@@]2(C)[C@@H]1/C=C/C1=CC(=C\C(C)=C\CCC/C=C/C)/OC1=O |  | Activity (Maltase-glucoamylase [1]): inactive
4 | C=C1CC[C@@H]2[C@](C)(COC(=O)c3cccnc3)[C@H](OC(=O)c3cccnc3)CC[C@@]2(C)[C@@H]1/C=C/C1=CC(=C\c2cccc(Br)c2)/OC1=O | 100% | 
5 | C=C1CC[C@@H]2[C@](C)(CO)[C@H](O)CC[C@@]2(C)[C@@H]1/C=C/C1=CC(=C/c2ccccc2)/OC1=O | 84.3% | 
6 | C=C1CC[C@@H]2[C@](C)(CO)[C@H](O)CC[C@@]2(C)[C@@H]1C/C=C1/C(=O)OC[C@H]1O |  | Activity (Maltase-glucoamylase [1]): inactive
7 | C=C1CC[C@@H]2[C@](C)(CO)[C@H](O)CC[C@@]2(C)[C@@H]1/C=C/C1=CC(=C/c2ccc(N(C)C)cc2)/OC1=O | 60.6% | 
8 | C=C1CC[C@@H]2[C@](C)(CO)[C@H](O)CC[C@@]2(C)[C@@H]1/C=C/C1=CC(=C/c2ccc(F)cc2)/OC1=O |  | Activity (Maltase-glucoamylase [1]): inactive
9 | C[C@H]1O[C@H](O[C@H]2[C@H](O)[C@@H](O)[C@@H](O[C@H]3[C@H](O)[C@@H](O)C(O)O[C@@H]3CO)O[C@@H]2CO)[C@H](O)[C@@H](O)[C@@H]1N[C@H]1C=C(CO)[C@@H](O)[C@H](O)[C@H]1O (stereo partly specified) |  | inhibition (Maltase-glucoamylase [2]): 56.5%
10 | C=C1CC[C@@H]2[C@]3(C)COCO[C@@H]3CC[C@@]2(C)[C@@H]1CC(O)C1=CCOC1=O (stereo partly specified) | 6.9% | 
11 | C[C@]1(CO)[C@H]2CC[C@@]3(CO3)[C@@H](C/C=C3/C(=O)OC[C@H]3O)[C@]2(C)CC[C@H]1O |  | Activity (Maltase-glucoamylase [1]): inactive
12 | C=C1CC[C@@H]2[C@](C)(CO)[C@H](O)CC[C@@]2(C)[C@@H]1/C=C/C1=CC(=C/c2ccc(OC)cc2)/OC1=O |  | IC50 (Maltase-glucoamylase [3]): 16 µM
13 | C=C1CC[C@@H]2[C@](C)(CO)[C@H](O)CC[C@@]2(C)[C@@H]1/C=C/C1=CC(=C/c2ccc(Cl)cc2)/OC1=O |  | Activity (Maltase-glucoamylase [1]): inactive
14 | C=C1CC[C@@H]2[C@](C)(CO)[C@H](O)CC[C@@]2(C)[C@@H]1/C=C/C1=CC(=C/c2cc(OC)c(OC)cc2OC)/OC1=O | 57.8% | 
15 | C=C1CC[C@@H]2[C@](C)(COC(=O)c3cccnc3)[C@H](OC(=O)c3cccnc3)CC[C@@]2(C)[C@@H]1/C=C/C1=CC(=C\c2ccc(N(C)C)cc2)/OC1=O | 74.8% | 
16 | C=C1CC[C@@H]2[C@](C)(COC(=O)c3cccnc3)[C@H](OC(=O)c3cccnc3)CC[C@@]2(C)[C@@H]1/C=C/C1=CC(=C\C(C)=C\CCC/C=C/C)/OC1=O | 68.9% | 
17 | C=C1CC[C@@H]2[C@](C)(CO)[C@H](O)CC[C@@]2(C)[C@@H]1CCC1CCOC1=O (stereo partly specified) |  | Activity (Maltase-glucoamylase [1]): inactive
18 | C=C1CC[C@@H]2[C@](C)(CO)[C@H](O)CC[C@@]2(C)[C@@H]1/C=C/C1=CC(=C/c2ccco2)/OC1=O | 49.6% | 
19 | C=C1CC[C@@H]2[C@](C)(COC(=O)c3cccnc3)[C@H](OC(=O)c3cccnc3)CC[C@@]2(C)[C@@H]1/C=C/C1=CC(=C\c2ccccc2)/OC1=O | 100% | 

Continued, in another order:

Row | inhibition (Maltase-glucoamylase [1]) | SMILES | further results
20 | 95.9% | C=C1CC[C@@H]2[C@](C)(COC(=O)c3cccnc3)[C@H](OC(=O)c3cccnc3)CC[C@@]2(C)[C@@H]1/C=C/C1=CC(=C/c2ccco2)/OC1=O | 
21 | 59.3% | C=C1CC[C@@H]2[C@](C)(CO)[C@H](O)CC[C@@]2(C)[C@@H]1/C=C/C1=CC(=C/c2ccc3c(c2)OCO3)/OC1=O | 
